Data on one compound can be found in publication PMC10747822 (Pharmaceutics, 2023).

A short description of series [1]: Blood pharmacokinetics in mice after intravenous and intraperitoneal injection. The settings on record: for half-life: C57Bl/6, mouse, whole blood sampled at 20, 40, 60, 120 min, non-compartmental. The class given is in vivo, C57Bl/6 female mice. The method, then:
Animal studies were approved by the regulatory authorities (Regierungspräsidium Karlsruhe of the state of Baden-Württemberg/Germany, 35-9185.81/G-145/21) and fully complied with European and national regulations for the care and use of laboratory animals (2010/63/EU). Eight- to ten-week-old C57Bl/6 female mice (Janvier) were used for the study.
The animals were administered 4 mg/kg Ac-[D-Leu]LLLRVK-amba in 0.100 mL 0.9% sodium chloride (NaCl) solution per mouse. Four animals received the peptide as intraperitoneal injection, and three animals as intravenous bolus injection into the tail vein. Blood samples were taken 20, 40, 60, and 120 min after administration by collecting a drop of blood from puncture of the facial vein into EDTA tubes (KABE Labortechnik, Nümbrecht, Germany). Whole-blood samples were immediately snap-frozen in liquid nitrogen and stored at −80 °C until analysis.
(§1) Blood samples for calibration and QC purposes were generated through the addition of 25 µL of the pertinent spike solution to 20 µL of blank blood and the subsequent addition of 25 µL of IS solution. Calibration samples were produced at 10, 30, 100, 300, 1000, 3000, and 10,000 ng/mL, and QC samples were produced at concentrations of 10, 30, 3750, and 7500 ng/mL. For study sample processing, 20 µL of each sample was added to 25 µL of IS solution, and 25 µL of ACN/H2O 1/1 + 0.1% FA was added for volume compensation to ensure that sample preparation matches that of study blood samples. For stability reasons, each sample was immediately depleted from proteins by adding 150 µL ACN including 0.1% FA. Samples were processed individually and kept frozen until processing. Subsequently, samples were centrifuged at 13,200× g for 5 min. From the extracts, 10 µL was transferred to 400 µL of ACN/H2O 1/19 + 0.1% FA in wells of a 96-well collection plate (Waters, Milford, MA, USA).
Calibration curves were determined with 1/x^2 weighted linear regression using peak area ratios of the analyte to IS. This calculation was performed using the software TargetLynx V4.2 (Waters, Milford, MA, USA). Blood pharmacokinetics were determined with the software Kinetica (v 5.0; Thermo Fisher Scientific, Waltham, MA, USA). Pharmacokinetic analyses were performed using standard non-compartmental methods. The elimination rate (λ) was calculated by linear regression of ln-transformed concentrations from the terminal concentration decline, and the half-life was calculated as ln 2 divided by λ. Standard calculations were performed using Microsoft Office Excel 2010 (Mountain View, CA, USA).

Series [2] can be described thus: Stock solution stability. The settings on record: 2 weeks; solutions in ACN/H2O (1/1, v/v) + 0.1% FA in glass, kept at 4 °C. The class given is physicochemical. The method, then:
Calibration and quality control (QC) spike solutions were prepared in ACN/H2O (1/1, v/v) + 0.1% FA in glass vials. These were produced from stock solution generated from accurately dissolved independent weighings into 2 mL volumetric flasks. Calibration solutions were prepared at concentrations of 8, 24, 80, 240, 800, […], and 8000 ng/mL. QC solutions were prepared at concentrations of 8, 24, 3000, and 6000 ng/mL. The IS spike solution was prepared accordingly at a concentration of 400 ng/mL. Solutions were kept at 4 °C.
Extraction via protein precipitation combined with UPLC-MS/MS quantification for Ac-[D-Leu]LLLRVK-amba complied with the FDA and EMA recommendations for accuracy, precision, linearity, matrix effects, and recovery. Within the calibrated range (10–10,000 ng/mL), correlation coefficients (r^2) of >0.99 were obtained using linear regression and 1/x^2 weighting (Table S3). Table 1 gives an overview of the intraday and interday accuracies and precision values during validation, which were well within the required limits. The observed carry-over after the highest calibration sample was 0.015% and within the required limits of less than 20% of the peak area of the LLOQ. Stock solution stability was established for 2 weeks, which was sufficient to cover sample analyses with an accuracy of 93.7% of the peak areas of the stored solutions compared to initial values.

A short description of series [3]: Freeze-and-thaw stability in whole blood QC samples. The class given is in vitro ADME, human. The settings on record: for freeze-and-thaw stability, Accuracy [%]: one cycle. The method, then: as §1
The applicable recommendations for bioanalytical method validation of the FDA and EMA were applied to the validation of the assay. Accuracy was calculated as the percentage of the ratio of the mean of the determined concentrations and the nominal concentration. The acceptance limit is 100 ± 15%, with the exception of the LLOQ where it is 100 ± 20% Q. The assay precision was calculated as the coefficient of variation of the determined sample concentrations. It needs to be ≤15% in general and ≤20% at the LLOQ. Each validation run included blank and IS controls, seven calibration samples in duplicate determination, and four QC samples (LLOQ and low, mid, and high QC concentrations) in six-fold determination. Recovery of the whole blood extraction process was calculated from peak areas of QC samples divided by the peak areas obtained from blank blood spiked with the respective amount after processing. Assessment of matrix effects was performed by the ratio of peak areas of blank blood samples spiked after processing with the peak areas of UPLC solvent containing an identical amount of analyte. Stability of the analyte was investigated in freeze-and-thaw cycles separated by at least 24 h and at room temperature for testing bench-top stability.
(§2) Because an isotopically labeled analog of Ac-[D-Leu]LLLRVK-amba was used as IS, potential variations in (negligible) matrix effects can be efficiently balanced by the IS due to its identical physicochemical characteristics. As a consequence, whole blood from other species is appropriate for calibration and QC preparation. Therefore, whole blood from human donors was used for these purposes, which also helps to reduce animal sacrifice.

Series [4] in a line: Stability in human whole blood. The class given is in vitro ADME. The settings on record: human whole blood (K-EDTA), over at least 2 h; 1000 ng/mL, room temperature; UPLC-MS/MS. The procedure: To investigate peptide stability, minimally diluted plasma or blood samples were generated through the addition of 10 µL of a spiking solution (50,000 ng/mL) to 490 µL of the pertinent biological matrix, resulting in a sample concentration of 1000 ng/mL. Samples (withdrawal of duplicates of 20 µL) were measured immediately after preparation and again after 1 and 2 h. Stability was evaluated via the comparison of peak area ratios of analyte and IS.
as §2

Each structure is given as a SMILES string. Like-named read-outs stand apart in the source and are kept apart here. Where a SMILES comes first, the peptide text is derived from it. [ ]: non-standard residue; d: D form. The star is where a group is joined. NH(4-amidinobenzyl) = N=C(N)c1ccc(CN*)cc1 Bounds are passed on as bounds.

For `CC(=O)N[C@H](CC(C)C)C(=O)N[C@@H](CC(C)C)C(=O)N[C@@H](CC(C)C)C(=O)N[C@@H](CC(C)C)C(=O)N[C@@H](CCCNC(=N)N)C(=O)N[C@H](C(=O)N[C@@H](CCCCN)C(=O)NCc1ccc(C(=N)N)cc1)C(C)C` [Ac-[D-Leu]LLLRVK-amba] (Ac-[dL]LLLRVK-{NH(4-amidinobenzyl)}), in series [1] (female, C57Bl/6, ip, mouse #1, 2 h after intraperitoneal administration of 4 mg/kg, whole blood, UPLC-MS/MS, single sample, read-out: calculated blood concentration), the level at 2 h was 15.8 ng/mL. Also, the half-life in series [1] (female, ip, mice, 4 mg/kg intraperitoneal, n = 4, UPLC-MS/MS, read-out: half-life after intraperitoneal administration) stood at 15.9 ± 1 min; in series [1] (female, mice, 4 mg/kg intravenous bolus into tail vein, n = 3, UPLC-MS/MS, read-out: half-life after intravenous injection), 21 ± 1.6 min. The intraperitoneal absorption result in series [1] (mice, 4 mg/kg intraperitoneal vs intravenous, judged by partial profiles, bioavailability not calculable) is listed as “very efficient”. In addition, the “stock solution stability, accuracy of peak areas of stored solutions compared to initial values” in series [2] is on record as 93.7%. In addition, the “freeze-and-thaw stability, accuracy” value in series [3] (whole blood QC samples, one freeze-and-thaw cycle, range over QC levels, corresponding precision ≤14.0%, UPLC-MS/MS) is 91.5 to 98.3%. Moreover, the “deviation after further freeze-and-thaw cycles” value in series [3] (whole blood, more than one freeze-and-thaw cycle, cycles separated by at least 24 h) is recorded as above 15%. In addition, the “freeze-and-thaw stability, Accuracy [%]” value in series [3] (whole blood, QC A, UPLC-MS/MS) was found to be 91.5%; in series [3] (whole blood, QC B, UPLC-MS/MS), 91.6%; in series [3] (whole blood, QC C, UPLC-MS/MS), 98.3%. In addition, the “degradation in human whole blood” value in series [4] is “no detectable degradation”.
